One series has as its system HH43 chick embryos. The series can be described thus: Gross development: anatomical staging and leg appearance of treated embryos. It is filed as in vivo. The protocol:
(§1) Fertilized white leghorn eggs (University of Connecticut poultry farm) were incubated at 37° C. under high humidity. For developmental characterizations, eggs were not injected. For other experiments, a single dose of sterile saline (control), 0.2% DMB (rigid paralysis), 0.2% pancuronium bromide (PB) (flaccid paralysis), 0.2% 4-AP (hypermotility), or 0.2% 4-AP and 5 mg BAPN per gram of embryo dry mass (to simultaneously induce hypermotility and inhibition of LOX activity) was injected at the air sac end of an HH43 egg and incubated for another 48 h, as previously described (10). DMB dosage was based on previous studies that paralyzed the embryo without affecting gross development (3). […] At specific timepoints, chick embryos were sacrificed by decapitation and staged based on anatomical features (15). The calcaneal tendon was homogenized in TRIzol LS reagent, snap frozen for protein and enzyme assays, or embedded for cryosectioning.

The test system of series [1] is HH43 chick embryo calcaneal tendons. In words: Calcaneal tendon elastic modulus by force volume-AFM after in ovo treatment. It is filed as in vivo. To be noted: HH43 chick embryos, 48 h; for calcaneal tendon elastic modulus relative to controls: single in ovo injection, vs saline. The method, then: as §1
(§2) Calcaneal tendons of staged embryos were cryoembedded as previously described (10) and cryosectioned at 50 μm thickness.
Force volume-AFM was used to characterize tendon elastic modulus using previously established methods (10). Briefly, tendon cryosections were immersed in PBS to remove O.C.T. A silicon nitride tip probe (˜20 nm radius) with a spring constant of 0.06 N/m (BRUKER, CA) was used on an MFP-3D AFM (ASYLUM RESEARCH, CA) to obtain force curves in a 64×64 2-dimensional array over a 10 μm×10 μm tissue region in the center of the tendon midsubstance with a 1.0 μm indentation trigger point. The sample was indented at 6 μm/s, at which tendon elastic properties were previously characterized with negligible viscous effects (10). Elastic modulus was calculated by fitting force displacement curves at each indentation to the Hertzian model using equations adapted from a previous study (10).

For series [2] the test system is unchanged. In words: Fibrillar collagen content and organization by F-SHG two photon microscopy. It is filed as in vivo. As to conditions: HH43 chick embryos, 48 h. The protocol:
as §1, §2
Tendon cryosections were immersed in Ca^2+/Mg^2+-free phosphate buffered saline (PBS) to remove O.C.T. A 20× water objective imaged a 220×220 μm region in the center of tendon midsubstance in PBS. Collagen was characterized by F-SHG at 800 nm excitation, and signal was collected by a photomultiplier tube using a 405DF30 filter. Background was determined with laser off. Background was subtracted from each F-SHG image using MATLAB (MATHWORKS, MA) and then average pixel intensities of each image were calculated to assess collagen content per unit area.

Series [3] relates to chick embryos. The series can be described thus: Embryo movement frequency after injection. It is filed as in vivo. To be noted: within 1 min of injection, lasted 48 h (data not shown). The protocol: as §1
In series [4] the test system is chick embryos. To be noted: HH36 to HH44 chick embryos, for at least 24 h, previous studies (14); cited from earlier work.
The subject of the next series is LOX activity. The series can be described thus: LOX activity assay of calcaneal tendons after in ovo treatment. It is filed as in vivo, chick. As to conditions: HH43 embryos treated in ovo, 48 h; for reduction of LOX activity levels of calcaneal tendons compared to saline controls: p<0.05. The protocol: as §1
Western blot to semi-quantitatively measure proLOX levels was performed with rabbit anti-proLOX antibody or rabbit anti-β-actin antibody (ABCAM, MA). ProLOX and β-actin levels were quantified by densitometry at ˜50 kDa and ˜40 kDa molecular bands, respectively. LOX activity of each sample was measured using a LOX activity assay kit (ABCAM, MA). Recombinant LOXL2 enzyme (R&D Systems, MN) was used as a positive control for each assay.

Series [5] relates to HH43 chick embryo calcaneal tendons. The series can be described thus: Collagen crosslink density analysis (HP/collagen) after paralysis. It is filed as in vivo. To be noted: HH43 chick embryos, injections at 0 h and 24 h, 48 h of paralysis. The protocol:
Briefly, HH43 chick embryos were either treated with saline (vehicle control), decamethonium bromide (DMB, THERMO FISHER), or pancuronium bromide (PB, THERMO FISHER). Treatments of DMB and PB were performed at 0 h and 24 h by injection through the air-pocket of each egg. After the 48 h of treatments, each embryo was sacrificed by decapitation, was staged, and the calcaneal tendons were dissected for collagen cross-link density analysis. For each biological sample (N=1), 5 tendons were pooled together (5 left calcaneal tendons from 5 chick embryos). In this experiment, collagen crosslink density analysis was performed for biological samples.

The mark [6] stands for this setting: treated at HH43, harvested after 48 h, compared with non-injected HH45.
Setting [7] is: treated at HH43 for 48 h, N ≥ 6, expected stage HH45.

Entries after “also recorded” stand apart in the source; their conditions may differ.

Turning to `N#CCCN` [BAPN, β-aminopropionitrile], the “gross appearance of legs at harvest” value with HH43 chick embryos (setting [6]) is “appeared similar to non-injected HH45 legs”. Also, in the series on HH43 chick embryos (setting [7]), the “Stage (HH) of embryos at harvest (mean ± standard deviation (std))” value (shortened to “Stage (HH) … (mean ± standard deviation (std))”) came to 45 ± 0.5 HH. Also, in series [1], the “calcaneal tendon elastic modulus relative to controls” value is “reduced”. Also, in series [2], the apparent collagen organization entry is “appeared normal”.

For `Nc1ccncc1` [4-AP, 4-aminopyridine], the “gross appearance of legs at harvest” value in the series with HH43 chick embryos (setting [6]) is recorded as “appeared similar to non-injected HH45 legs”. Moreover, in the series with HH43 chick embryos (setting [7]), the “Stage (HH) … (mean ± standard deviation (std))” value is 45 ± 0.4 HH. Moreover, the “increase of calcaneal tendon modulus relative to controls” value in series [1] (hypermotility) is on record as 2 fold. Also, the “calcaneal tendon elastic modulus relative to controls” value in series [1] is on record as “significantly upregulated; also recorded: higher”. Besides, in the series on chick embryos [3], the “increase of embryo movement frequency” value amounted to 200%. Also, the “hypermotility induced by a single injection” value in the series with chick embryos [4] is “up to 400%”. The “LOX activity levels in calcaneal tendons compared to controls” value with LOX activity is recorded as “no effects”. In addition, in series [2], the apparent collagen organization result is listed as “Neither treatment affected; also recorded: appeared normal” and the “collagen content relative to controls” value was “Neither treatment affected”.

On to `CC(=O)O[C@H]1C[C@@H]2CC[C@@H]3[C@H](CC[C@@]4(C)[C@H]3C[C@H]([N+]3(C)CCCCC3)[C@@H]4OC(C)=O)[C@@]2(C)C[C@@H]1[N+]1(C)CCCCC1` [PB, pancuronium bromide], for which the “hydroxylysyl pyridinoline (HP)/collagen ratio compared to saline-treated tendons” value in series [5] is recorded as “lower”. In addition, in the series on LOX activity, the “LOX activity levels in calcaneal tendons compared to controls” value is reported as “significantly lower” and the “reduction of LOX activity levels of calcaneal tendons compared to saline controls” value is recorded as 2 fold.

For `C[N+](C)(C)CCCCCCCCCC[N+](C)(C)C` [DMB, decamethonium bromide], in the series with HH43 chick embryos (in vivo), the “Stage (HH) … (mean ± standard deviation (std))” value stood at 45 ± 0.4 HH and the “gross appearance of legs at harvest” value is reported as “hyperextended digits”. Besides, in series [1] (paralysis), the “reduction of calcaneal tendon modulus relative to controls” value is given as 2 fold. Moreover, the “calcaneal tendon elastic modulus relative to controls” value in series [1] is listed as “significantly reduced”. Besides, in series [5], the “hydroxylysyl pyridinoline (HP)/collagen ratio compared to saline-treated tendons” value was “lower”. Further, in the series on LOX activity, the “LOX activity levels in calcaneal tendons compared to controls” value is reported as “significantly reduced” and the “reduction of LOX activity levels of calcaneal tendons compared to saline controls” value was 2 fold. For the same compound, in series [2], the apparent collagen organization result is recorded as “Neither treatment affected” and the “collagen content relative to controls” value is listed as “Neither treatment affected”.

The values are drawn from patent publication US12303614B2, “Compositions and methods for improving mechanical properties of a tissue or for regenerating an injured or diseased tissue” (University of Rochester, priority 2019, dated 2025).
